Results reported in PMC12028158, “Synthesis and In Vitro Evaluation of the Anticancer Effect of Novel Phosphonium Vindoline Derivatives” (International Journal of Molecular Sciences, 2025).
Read-outs that look alike come from different tables or passages of the source.

Columns and labels:
Assay type in all cases: cell-based
CCRF-CEM = assay: NCI60 five-dose screen; conditions: Homo sapiens
HL-60(TB) = assay: NCI60 five-dose screen; conditions: Homo sapiens
MOLT-4 = assay: NCI60 five-dose screen; conditions: Homo sapiens
RPMI-8226 = assay: NCI60 five-dose screen; conditions: Homo sapiens
EKVX [1] = assay: NCI60 five-dose screen; conditions: Homo sapiens
HCT-15 = assay: NCI60 five-dose screen; conditions: Homo sapiens
SF-539 = assay: NCI60 five-dose screen; conditions: Homo sapiens
U251 = assay: NCI60 five-dose screen; conditions: Homo sapiens
MALME-3M = assay: NCI60 five-dose screen; conditions: Homo sapiens
M14 = assay: NCI60 five-dose screen; conditions: Homo sapiens
SK-MEL-28 = assay: NCI60 five-dose screen; conditions: Homo sapiens
OVCAR-4 = assay: NCI60 five-dose screen; conditions: Homo sapiens
OVCAR-5 = assay: NCI60 five-dose screen; conditions: Homo sapiens
OVCAR-8 = assay: NCI60 five-dose screen; conditions: Homo sapiens
NCI/ADR-RES = assay: NCI60 five-dose screen; conditions: Homo sapiens
786-0 [2] = assay: NCI60 five-dose screen; conditions: Homo sapiens
ACHN = assay: NCI60 five-dose screen; conditions: Homo sapiens
RXF 393 [3] = assay: NCI60 five-dose screen; conditions: Homo sapiens
TK-10 [4] = assay: NCI60 five-dose screen; conditions: Homo sapiens
PC-3 [5] = assay: NCI60 five-dose screen; conditions: Homo sapiens
MCF7 = assay: NCI60 five-dose screen; conditions: Homo sapiens
BT-549 = assay: NCI60 five-dose screen; conditions: Homo sapiens
[6] = system: Non-small Cell Lung Cancer panel; assay: NCI60 five-dose screen, panel mean; conditions: Homo sapiens, read-out: Mean GI50
Melanoma panel = assay: NCI60 five-dose screen, panel mean; conditions: Homo sapiens, read-out: Mean GI50
Ovarian Cancer panel = assay: NCI60 five-dose screen, panel mean; conditions: Homo sapiens, read-out: Mean GI50
Renal Cancer panel = assay: NCI60 five-dose screen, panel mean; conditions: Homo sapiens, read-out: Mean GI50
K-562 = assay: NCI60 one-dose screen; conditions: Homo sapiens
A549/ATCC = assay: NCI60 one-dose screen; conditions: Homo sapiens
EKVX [7] = assay: NCI60 one-dose screen; conditions: Homo sapiens, read-out: Growth percent
NCI-H23 = assay: NCI60 one-dose screen; conditions: Homo sapiens
NCI-H322M = assay: NCI60 one-dose screen; conditions: Homo sapiens, read-out: Growth percent
NCI-H460 = assay: NCI60 one-dose screen; conditions: Homo sapiens
NCI-H522 = assay: NCI60 one-dose screen; conditions: Homo sapiens
COLO 205 = assay: NCI60 one-dose screen; conditions: Homo sapiens
KM12 = assay: NCI60 one-dose screen; conditions: Homo sapiens
SNB-19 = assay: NCI60 one-dose screen; conditions: Homo sapiens
LOX IMVI = assay: NCI60 one-dose screen; conditions: Homo sapiens, read-out: Growth percent
MDA-MB-435 = assay: NCI60 one-dose screen; conditions: Homo sapiens
UACC-62 = assay: NCI60 one-dose screen; conditions: Homo sapiens
OVCAR-3 = assay: NCI60 one-dose screen; conditions: Homo sapiens
SK-OV-3 = assay: NCI60 one-dose screen; conditions: Homo sapiens
786-0 [8] = assay: NCI60 one-dose screen; conditions: Homo sapiens
RXF 393 [9] = assay: NCI60 one-dose screen; conditions: Homo sapiens
SN12C = assay: NCI60 one-dose screen; conditions: Homo sapiens, read-out: Growth percent
TK-10 [10] = assay: NCI60 one-dose screen; conditions: Homo sapiens
PC-3 [11] = assay: NCI60 one-dose screen; conditions: Homo sapiens
DU-145 = assay: NCI60 one-dose screen; conditions: Homo sapiens
MDA-MB-468 = assay: NCI60 one-dose screen; conditions: Homo sapiens

CC[C@]12C=CCN3CC[C@@]4(c5ccc(OC)cc5N(C)[C@H]4[C@@](O)(C(=O)OC)[C@@H]1OC(=O)CCC[P+](c1ccccc1)(c1ccccc1)c1ccccc1)[C@@H]32 [compound 3, reference compound]
GI50 (CCRF-CEM; Leukemia, five-dose, read-out: GI50): 0.487 µM
GI50 (HL-60(TB); HL-60, HL-60(TB), Leukemia, five-dose, read-out: GI50): 0.124 µM
GI50 (MOLT-4; MOLT-4, Leukemia, five-dose, read-out: GI50): 0.614 µM
GI50 (RPMI-8226; RPMI-8226, Leukemia, five-dose, read-out: GI50): 0.219 µM
GI50 (EKVX [1]; Non-small Cell Lung Cancer, five-dose, read-out: GI50): 0.47 µM
GI50 (HCT-15; HCT-15, Colon Cancer, five-dose, read-out: GI50): 8.5 µM
GI50 (SF-539; SF-539, CNS Cancer, five-dose, read-out: GI50): 0.662 µM
GI50 (U251; U-251, U251, CNS Cancer, five-dose, read-out: GI50): 0.371 µM
GI50 (MALME-3M; MALME-3M, Melanoma, five-dose, read-out: GI50): 0.283 µM
GI50 (M14; M14, Melanoma, five-dose, read-out: GI50): 0.79 µM
GI50 (SK-MEL-28; SK-MEL-28, Melanoma, five-dose, read-out: GI50): 0.261 µM
GI50 (OVCAR-4; OVCAR-4, Ovarian Cancer, five-dose, read-out: GI50): 0.469 µM
GI50 (OVCAR-5; OVCAR-5, Ovarian Cancer, five-dose, read-out: GI50): 1.2 µM
GI50 (OVCAR-8; OVCAR-8, Ovarian Cancer, five-dose, read-out: GI50): 1.27 µM
GI50 (NCI/ADR-RES; Ovarian Cancer, five-dose, read-out: GI50): > 50 µM
GI50 (786-0 [2]; 786-0, Renal Cancer, five-dose, read-out: GI50): 2.74 µM
GI50 (ACHN; Renal Cancer, five-dose, read-out: GI50): 4.53 µM
GI50 (RXF 393 [3]; RXF 393, Renal Cancer, five-dose, read-out: GI50): 0.705 µM
GI50 (TK-10 [4]; TK-10, Renal Cancer, five-dose, read-out: GI50): 1.48 µM
GI50 (PC-3 [5]; PC-3, Prostate Cancer, five-dose, read-out: GI50): 0.204 µM
GI50 (MCF7; MCF7, MCF7, Breast Cancer, five-dose, read-out: GI50): 0.306 µM
GI50 (BT-549; BT-549, Breast Cancer, five-dose, read-out: GI50): 0.38 µM
GI50 ([6]; mean over Non-small Cell Lung Cancer panel): 1.11 µM
GI50 (Melanoma panel; mean over Melanoma panel): 0.45 µM
GI50 (Ovarian Cancer panel; mean over Ovarian Cancer panel): 7.78 µM
GI50 (Renal Cancer panel; mean over Renal Cancer panel): 3.52 µM
activity at 10 µM (K-562; K562, K-562, 10 μM, one-dose, read-out: Growth percent): 10.4%
activity at 10 µM (A549/ATCC; A549/ATCC, 10 μM, one-dose, read-out: Growth percent): 13.4%
activity at 10 µM (EKVX [7]; 10 μM, one-dose): 10.3%
activity at 10 µM (NCI-H23; NCI-H23, 10 μM, one-dose, read-out: Growth percent): -8.66%
activity at 10 µM (NCI-H322M; 10 μM, one-dose): 35.6%
activity at 10 µM (NCI-H460; NCI-H460, 10 μM, one-dose, read-out: Growth percent): 6.11%
activity at 10 µM (NCI-H522; NCI-H522, 10 μM, one-dose, read-out: Growth percent): -35.4%
activity at 10 µM (COLO 205; COLO 205, 10 μM, one-dose, read-out: Growth percent): -87.9%
activity at 10 µM (KM12; KM12, 10 μM, one-dose, read-out: Growth percent): -27.2%
activity at 10 µM (SNB-19; SNB-19, 10 μM, one-dose, read-out: Growth percent): 11%
activity at 10 µM (LOX IMVI; 10 μM, one-dose): 8.81%
activity at 10 µM (MDA-MB-435; MDA-MB-435, 10 μM, one-dose, read-out: Growth percent): -21.6%
activity at 10 µM (UACC-62; UACC-62, 10 μM, one-dose, read-out: Growth percent): -59.3%
activity at 10 µM (OVCAR-3; OVCAR-3, 10 μM, one-dose, read-out: Growth percent): -2.49%
activity at 10 µM (SK-OV-3; SK-OV-3, 10 μM, one-dose, read-out: Growth percent): -21%
activity at 10 µM (786-0 [8]; 786-0, 10 μM, one-dose, read-out: Growth percent): 20.6%
activity at 10 µM (RXF 393 [9]; RXF 393, 10 μM, one-dose, read-out: Growth percent): 28.9%
activity at 10 µM (SN12C; 10 μM, one-dose): 2.73%
activity at 10 µM (TK-10 [10]; TK-10, 10 μM, one-dose, read-out: Growth percent): 22.3%
activity at 10 µM (PC-3 [11]; PC-3, 10 μM, one-dose, read-out: Growth percent): 2.13%
activity at 10 µM (DU-145; DU-145, 10 μM, one-dose, read-out: Growth percent): 18%
activity at 10 µM (MDA-MB-468; MDA-MB-468, 10 μM, one-dose, read-out: Growth percent): -75.6%

CC[C@]12C=CCN3CC[C@@]4(c5ccc(OC)cc5N(C)[C@H]4[C@@](O)(C(=O)OC)[C@@H]1OC(=O)CCC[P+](c1ccc(F)cc1)(c1ccc(F)cc1)c1ccc(F)cc1)[C@@H]32 [9c]
GI50 (CCRF-CEM): 12.7 µM
GI50 (HL-60(TB); HL-60): 1.77 µM
GI50 (MOLT-4; MOLT-4): 9.69 µM
GI50 (RPMI-8226; RPMI-8226): 2.05 µM
GI50 (EKVX [1]): 19.4 µM
GI50 (HCT-15; HCT-15): > 48.5 µM
GI50 (SF-539; SF-539): 16.8 µM
GI50 (U251; U-251): 9.36 µM
GI50 (MALME-3M; Malme-3M): 6.85 µM
GI50 (M14; M14): 9.1 µM
GI50 (SK-MEL-28; SK-MEL-28): 5.34 µM
GI50 (OVCAR-4; OVCAR-4): 16.2 µM
GI50 (OVCAR-5; OVCAR-5): 20.8 µM
GI50 (OVCAR-8; OVCAR-8): 18.4 µM
GI50 (NCI/ADR-RES): > 48.5 µM
GI50 (786-0 [2]; 786-0): > 48.5 µM
GI50 (ACHN): > 48.5 µM
GI50 (RXF 393 [3]; RXF 393): 8.46 µM
GI50 (TK-10 [4]; TK-10): 22.2 µM
GI50 (PC-3 [5]; PC-3): 12.6 µM
GI50 (MCF7; MCF7): 8.26 µM
GI50 (BT-549; BT-549): 8.13 µM
GI50 [6]: 19.6 µM
GI50 (Melanoma panel): 8.13 µM
GI50 (Ovarian Cancer panel): 19 µM
GI50 (Renal Cancer panel): 34.2 µM
activity at 10 µM (K-562; K562, read-out: Growth percent): 21.6%
activity at 10 µM (A549/ATCC; A549, read-out: Growth percent): 54.5%
activity at 10 µM (EKVX [7]): 58.1%
activity at 10 µM (NCI-H23; NCI-H23, read-out: Growth percent): 35.5%
activity at 10 µM (NCI-H322M): 65.2%
activity at 10 µM (NCI-H460; NCI-H460, read-out: Growth percent): 30.9%
activity at 10 µM (NCI-H522; NCI-H522, read-out: Growth percent): -17.7%
activity at 10 µM (COLO 205; COLO 205, read-out: Growth percent): -18.9%
activity at 10 µM (KM12; KM12, read-out: Growth percent): 21.3%
activity at 10 µM (SNB-19; SNB-19, read-out: Growth percent): 13.8%
activity at 10 µM (LOX IMVI): 31.1%
activity at 10 µM (MDA-MB-435; MDA-MB-435, read-out: Growth percent): 6.69%
activity at 10 µM (UACC-62; UACC-62, read-out: Growth percent): -59.5%
activity at 10 µM (OVCAR-3; OVCAR-3, read-out: Growth percent): 21.1%
activity at 10 µM (SK-OV-3; SK-OV-3, read-out: Growth percent): 54.7%
activity at 10 µM (786-0 [8]; 786-0, read-out: Growth percent): 80.9%
activity at 10 µM (RXF 393 [9]; RXF 393, read-out: Growth percent): -10.4%
activity at 10 µM (SN12C): 16.6%
activity at 10 µM (TK-10 [10]; TK-10, read-out: Growth percent): 63.9%
activity at 10 µM (PC-3 [11]; PC-3, read-out: Growth percent): 16.7%
activity at 10 µM (DU-145; DU-145, read-out: Growth percent): 47.7%
activity at 10 µM (MDA-MB-468; MDA-MB-468, read-out: Growth percent): -74.6%
